# Measured values published in the NIST ThermoML archive (doi:10.1016/j.jct.2011.01.006).
# Values joined by “and” are separate entries in the source; they are usually repeats but may differ in a detail not shown here. Equal values may be shown once. ± gives the expanded uncertainty stated by the source.
# Key:
# [1] = Crystal, Calculated from knudsen effusion weight loss
# [2] = molar enthalpy of vaporization or sublimation; conditions: 298.15 K; Crystal; Ebulliometric method (Recirculating still)
structure (smiles),measurement,setting,value
CC(=O)c1cccc([N+](=O)[O-])c1 [1-(3-nitrophenyl)ethanone],vapor or sublimation pressure,[1]; 300.2 K,7e-05 ± 4e-06 kPa and 6.8e-05 ± 3e-06 kPa and 6.6e-05 ± 3e-06 kPa
same,vapor or sublimation pressure,[1]; 302.18 K,8.8e-05 ± 4e-06 kPa and 8.9e-05 ± 4e-06 kPa
same,vapor or sublimation pressure,[1]; 304.08 K,0.000113 ± 6e-06 kPa and 0.000115 ± 6e-06 kPa
same,vapor or sublimation pressure,[1]; 306.2 K,0.000149 ± 7e-06 kPa and 0.000148 ± 7e-06 kPa and 0.000152 ± 8e-06 kPa
same,vapor or sublimation pressure,[1]; 308.16 K,0.000192 ± 1e-05 kPa and 0.000191 ± 1e-05 kPa and 0.000189 ± 9e-06 kPa
same,vapor or sublimation pressure,[1]; 310.08 K,0.000238 ± 1.2e-05 kPa and 0.000241 ± 1.2e-05 kPa and 0.000249 ± 1.2e-05 kPa
same,vapor or sublimation pressure,[1]; 312.19 K,0.000321 ± 1.6e-05 kPa and 0.000305 ± 1.5e-05 kPa and 0.000302 ± 1.5e-05 kPa
same,vapor or sublimation pressure,[1]; 314.15 K,0.000404 ± 2e-05 kPa and 0.000392 ± 2e-05 kPa and 0.000387 ± 1.9e-05 kPa
same,vapor or sublimation pressure,[1]; 316.08 K,0.000499 ± 2.5e-05 kPa and 0.000491 ± 2.5e-05 kPa and 0.00049 ± 2.5e-05 kPa
same,vapor or sublimation pressure,[1]; 318.18 K,0.000669 ± 3.4e-05 kPa and 0.000628 ± 3.1e-05 kPa and 0.000621 ± 3.1e-05 kPa
same,vapor or sublimation pressure,[1]; 320.15 K,0.000817 ± 4.1e-05 kPa and 0.000801 ± 4e-05 kPa and 0.00079 ± 4e-05 kPa
same,vapor or sublimation pressure,[1]; 322.08 K,0.001007 ± 0.0001 kPa and 0.001 ± 5e-05 kPa and 0.000997 ± 5e-05 kPa
same,molar enthalpy,[2],23.69 ± 0.215 kcal/mol
CC(=O)c1ccc([N+](=O)[O-])cc1 [1-(4-nitrophenyl)ethanone],vapor or sublimation pressure,[1]; 302.19 K,9.1e-05 ± 5e-06 kPa and 9e-05 ± 5e-06 kPa
same,vapor or sublimation pressure,[1]; 304.15 K,0.000121 ± 6e-06 kPa and 0.000119 ± 6e-06 kPa and 0.000118 ± 6e-06 kPa
same,vapor or sublimation pressure,[1]; 306.07 K,0.000149 ± 7e-06 kPa and 0.000156 ± 8e-06 kPa and 0.000151 ± 8e-06 kPa
same,vapor or sublimation pressure,[1]; 306.19 K,0.000148 ± 7e-06 kPa and 0.000151 ± 8e-06 kPa and 0.000147 ± 7e-06 kPa
same,vapor or sublimation pressure,[1]; 308.16 K,0.000192 ± 1e-05 kPa and 0.000193 ± 1e-05 kPa and 0.00019 ± 1e-05 kPa
same,vapor or sublimation pressure,[1]; 310.07 K,0.000239 ± 1.2e-05 kPa and 0.000235 ± 1.2e-05 kPa and 0.000243 ± 1.2e-05 kPa
same,vapor or sublimation pressure,[1]; 312.19 K,0.000329 ± 1.6e-05 kPa and 0.000306 ± 1.5e-05 kPa and 0.000304 ± 1.5e-05 kPa
same,vapor or sublimation pressure,[1]; 314.16 K,0.000402 ± 2e-05 kPa and 0.000397 ± 2e-05 kPa and 0.000392 ± 2e-05 kPa
same,vapor or sublimation pressure,[1]; 316.07 K,0.000494 ± 2.5e-05 kPa and 0.000502 ± 2.5e-05 kPa and 0.000503 ± 2.5e-05 kPa
same,vapor or sublimation pressure,[1]; 318.18 K,0.000657 ± 3.3e-05 kPa and 0.000619 ± 3.1e-05 kPa and 0.000617 ± 3.1e-05 kPa
same,vapor or sublimation pressure,[1]; 320.13 K,0.000795 ± 4e-05 kPa and 0.000792 ± 4e-05 kPa and 0.00078 ± 3.9e-05 kPa
same,vapor or sublimation pressure,[1]; 322.06 K,0.00096 ± 4.8e-05 kPa and 0.000984 ± 4.9e-05 kPa and 0.000991 ± 5e-05 kPa
same,molar enthalpy,[2],23.2 ± 0.263 kcal/mol
